{"source": "patent US9999222B2", "about": "“Herbicidal combination comprising azines” (BASF SE, priority 2014, dated 2018)", "experiment_in_all_cases": "Greenhouse test, pre-emergence treatment", "key": {"[1]": {"tested_on": "ALOMY", "type": "in vivo, Alopecurus myosuroides", "conditions": "Alopecurus myosuroides, pre-emergence, 480 h, ALOMY, pre-emergence, read-out: observed % activity 20 DAT", "in_short": "(§1)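 Seeds were sown in loamy sand with approximately 3.0% humus, then sprayed at once with actives suspended or emulsified in water. Pots were watered, hooded until rooting, held at 10-25° C. or 20-35° C. by species for 2 to 4 weeks, and scored 0 (no damage) to 100 (no emergence/complete destruction).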"}, "[2]": {"tested_on": "ECHCG", "type": "in vivo, Echinocloa crus-galli", "conditions": "Echinochloa crus-galli, 480 h, ECHCG, use rate 3.125 g ai/ha, 20 DAT, read-out: observed % activity 20 DAT", "in_short": "as §1"}, "[3]": {"tested_on": "POLCO", "type": "in vivo, Polygonum convolvulus", "conditions": "Fallopia convolvulus, pre-emergence, 480 h; for inhibition at 6.25 g/ha: use rate 6.25 g ai/ha", "in_short": "as §1"}, "[4]": {"tested_on": "SETFA", "type": "in vivo, Setaria faberi", "conditions": "Setaria faberi, 480 h, SETFA, individual, read-out: observed % activity 20 DAT", "in_short": "as §1"}, "[5]": {"tested_on": "BRADC", "type": "in vivo, Brachiaria decumbens", "conditions": "Urochloa decumbens, pre-emergence, 480 h, pre-emergence, 36 g ai/ha; read-out: observed % activity 20 DAT", "in_short": "as §1"}, "[6]": {"tested_on": "COMBE", "type": "in vivo, Commelina benghalensis", "conditions": "Commelina benghalensis, pre-emergence, 480 h", "in_short": "as §1"}, "[7]": {"tested_on": "ELEIN", "type": "in vivo, Eleusine indica", "conditions": "Eleusine indica, 480 h, read-out: observed % activity 20 DAT", "source_text": "The culture containers used were plastic flowerpots containing loamy sand with approximately 3.0% of humus as the substrate. The seeds of the test plants were sown separately for each species.\nFor the pre-emergence treatment, the active ingredients, which had been suspended or emulsified in water, were applied directly after sowing by means of finely distributing nozzles. The containers were irrigated gently to promote germination and growth and subsequently covered with transparent plastic hoods until the plants had rooted. This cover caused uniform germination of the test plants, unless this had been impaired by the active ingredients.\nDepending on the species, the plants were kept at 10-25° C. or 20-35° C., respectively.\nThe test period extended over 2 to 4 weeks. During this time, the plants were tended, and their response to the individual treatments was evaluated.\nEvaluation was carried out using a scale from 0 to 100. 100 means no emergence of the plants, or complete destruction of at least the aerial moieties, and 0 means no damage, or normal course of growth. A moderate herbicidal activity is given at values of at least 60, a good herbicidal activity is given at values of at least 70, and a very good herbicidal activity is given at values of at least 85.\nThe respective stated components a and b, and if appropriate, c were formulated as a 10% by weight strength emulsion concentrate and, with addition of the amount of solvent system, introduced into the spray liquor used for applying the active compound.\nIn the examples, the solvent used was water.\nIn the examples below, using the method of S. R. Colby (1967) “Calculating synergistic and antagonistic responses of herbicide combinations”, Weeds 15, p. 22ff., the value E, which is expected if the activity of the individual active compounds is only additive, was calculated. E=X+Y−(X·Y/100) where • X=percent activity using active compound a at an application rate A; • Y=percent activity using active compound b at an application rate B; • E=expected activity (in %) by a+b at application rates A+B.\nIf the value found experimentally is higher than the value E calculated according to Colby, a synergistic effect is present."}, "[8]": {"tested_on": "EPHHL", "type": "in vivo, Euphorbia heterophylla", "conditions": "Euphorbia heterophylla, pre-emergence, 480 h, 20 DAT, read-out: observed % activity", "in_short": "as §1"}, "[9]": {"tested_on": "GALAP", "type": "in vivo, Galium aparine", "conditions": "Galium aparine, pre-emergence, 480 h, pre-emergence, read-out: observed % activity 20 DAT", "in_short": "as §1"}, "[10]": {"tested_on": "GERPU", "type": "in vivo, Geranium pusillum", "conditions": "Geranium pusillum, pre-emergence, 480 h, 20 DAT, read-out: observed % activity", "in_short": "as §1"}, "[11]": {"tested_on": "KCHSC", "type": "in vivo, Kochia scoparia", "in_short": "as §1"}, "[12]": {"tested_on": "LOLMU", "type": "in vivo, Lolium multiflorum", "conditions": "Lolium multiflorum, pre-emergence, 480 h, LOLMU, pre-emergence, individual, use rate 6.25 g ai/ha; read-out: observed % activity 20 DAT", "in_short": "as §1"}, "[13]": {"tested_on": "CENCY", "type": "in vivo", "conditions": "480 h, read-out: observed % activity 20 DAT"}, "[14]": {"conditions": "5 g ai/ha, 20 DAT, read-out: observed % activity"}, "[15]": {"conditions": "10 g ai/ha, 20 DAT, read-out: observed % activity"}, "[16]": {"conditions": "10 g ai/ha, read-out: observed % activity 20 DAT"}}, "note": "Where two headings read alike, the source gives them in different places.", "data": [{"smiles": "CC(C)N(C)S(=O)(=O)NC(=O)c1cc(-n2c(=O)cc(C(F)(F)F)n(C)c2=O)c(F)cc1Cl", "note": "[Saflufenacil, saflufenacil]", "values": [{"measurement": "inhibition at 6.25 g/ha", "setting": "[1]; individual, use rate 6.25 g ai/ha", "value": 0, "unit": "%"}, {"measurement": "inhibition at 12.5 g/ha", "setting": "[1]; individual, use rate 12.5 g ai/ha", "value": 0, "unit": "%"}, {"measurement": "inhibition at 3.125 g/ha", "setting": "[1]; use rate 3.125 g ai/ha, 20 DAT", "value": 0, "unit": "%"}, {"measurement": "inhibition at 3.125 g/ha", "setting": "[2]", "value": 0, "unit": "%"}, {"measurement": "inhibition at 5 g/ha", "setting": "[3]; [14]", "value": 60, "unit": "%"}, {"measurement": "inhibition at 10 g/ha", "setting": "[3]; [15]", "value": 65, "unit": "%"}, {"measurement": "inhibition at 6.25 g/ha", "setting": "[3]; POLCO, individual, read-out: observed % activity 20 DAT", "value": 70, "unit": "%"}, {"measurement": "inhibition at 10 g/ha", "setting": "[3]; POLCO, individual, use rate 10 g ai/ha, read-out: observed % activity 20 DAT", "value": 25, "unit": "%"}, {"measurement": "inhibition at 12.5 g/ha", "setting": "[3]; POLCO, individual, use rate 12.5 g ai/ha, read-out: observed % activity 20 DAT", "value": 85, "unit": "%"}, {"measurement": "inhibition at 10 g/ha", "setting": "[3]; [16]", "value": 25, "unit": "%"}, {"measurement": "inhibition at 6.25 g/ha", "setting": "[3]; POLCO, 20 DAT, read-out: observed % activity 20 DAT", "value": 70, "unit": "%"}, {"measurement": "inhibition at 6.25 g/ha", "setting": "[4]; use rate 6.25 g ai/ha", "value": 0, "unit": "%"}, {"measurement": "inhibition at 12.5 g/ha", "setting": "[4]; use rate 12.5 g ai/ha", "value": 0, "unit": "%"}, {"measurement": "inhibition at 36 g/ha", "setting": "[5]", "value": 90, "unit": "%"}, {"measurement": "inhibition at 5 g/ha", "setting": "[6]; [14]", "value": 65, "unit": "%"}, {"measurement": "inhibition at 10 g/ha", "setting": "[6]; [15]", "value": 98, "unit": "%"}, {"measurement": "inhibition at 5 g/ha", "setting": "[6]; COMBE, individual, use rate 5 g ai/ha, read-out: observed % activity 20 DAT", "value": 0, "unit": "%"}, {"measurement": "inhibition at 10 g/ha", "setting": "[6]; COMBE, individual, use rate 10 g ai/ha, read-out: observed % activity 20 DAT", "value": 15, "unit": "%"}, {"measurement": "inhibition at 5 g/ha", "setting": "[6]; 5 g ai/ha, read-out: observed % activity 20 DAT", "value": 0, "unit": "%"}, {"measurement": "inhibition at 10 g/ha", "setting": "[6]; [16]", "value": 15, "unit": "%"}, {"measurement": "inhibition at 18 g/ha", "setting": "[7]; 18 g ai/ha", "value": 35, "unit": "%"}, {"measurement": "inhibition at 36 g/ha", "setting": "[7]; 36 g ai/ha", "value": 95, "unit": "%"}, {"measurement": "inhibition at 5 g/ha", "setting": "[8]; 5 g ai/ha", "value": 80, "unit": "%"}, {"measurement": "inhibition at 10 g/ha", "setting": "[8]; 10 g ai/ha", "value": 95, "unit": "%"}, {"measurement": "inhibition at 5 g/ha", "setting": "[9]; GALAP, individual, use rate 5 g ai/ha", "value": 25, "unit": "%"}, {"measurement": "inhibition at 10 g/ha", "setting": "[9]; GALAP, individual, use rate 10 g ai/ha", "value": 50, "unit": "%"}, {"measurement": "inhibition at 5 g/ha", "setting": "[9]; 5 g ai/ha", "value": 25, "unit": "%"}, {"measurement": "inhibition at 10 g/ha", "setting": "[9]; 10 g ai/ha", "value": 50, "unit": "%"}, {"measurement": "inhibition at 5 g/ha", "setting": "[10]; 5 g ai/ha", "value": 25, "unit": "%"}, {"measurement": "inhibition at 10 g/ha", "setting": "[10]; 10 g ai/ha", "value": 25, "unit": "%"}, {"measurement": "observed % activity", "setting": "[11]; 5 g ai/ha, 20 DAT", "value": 85, "unit": "%"}, {"measurement": "inhibition at 5 g/ha", "setting": "[11]; Bassia scoparia, pre-emergence, 480 h, 5 g ai/ha, 20 DAT, read-out: observed % activity", "value": 70, "unit": "%"}, {"measurement": "inhibition at 5 g/ha", "setting": "[11]; Bassia scoparia, pre-emergence, 480 h, KCHSC, pre-emergence, individual, use rate 5 g ai/ha, read-out: observed % activity 20 DAT", "value": 70, "unit": "%"}, {"measurement": "inhibition at 6.25 g/ha", "setting": "[11]; Bassia scoparia, pre-emergence, 480 h, KCHSC, pre-emergence, individual, use rate 6.25 g ai/ha, read-out: observed % activity 20 DAT", "value": 30, "unit": "%"}, {"measurement": "inhibition at 10 g/ha", "setting": "[11]; Bassia scoparia, pre-emergence, 480 h, KCHSC, pre-emergence, individual, use rate 10 g ai/ha, read-out: observed % activity 20 DAT", "value": 65, "unit": "%"}, {"measurement": "inhibition at 12.5 g/ha", "setting": "[11]; Bassia scoparia, pre-emergence, 480 h, KCHSC, pre-emergence, individual, use rate 12.5 g ai/ha, read-out: observed % activity 20 DAT", "value": 70, "unit": "%"}, {"measurement": "inhibition at 5 g/ha", "setting": "[11]; Bassia scoparia, pre-emergence, 480 h, pre-emergence, 5 g ai/ha, read-out: observed % activity 20 DAT", "value": 70, "unit": "%"}, {"measurement": "inhibition at 10 g/ha", "setting": "[11]; Bassia scoparia, pre-emergence, 480 h, pre-emergence, 10 g ai/ha, read-out: observed % activity 20 DAT", "value": 65, "unit": "%"}, {"measurement": "inhibition at 6.25 g/ha", "setting": "[12]", "value": 0, "unit": "%"}, {"measurement": "inhibition at 5 g/ha", "setting": "[13]; 5 g ai/ha", "value": 20, "unit": "%"}, {"measurement": "inhibition at 10 g/ha", "setting": "[13]; 10 g ai/ha", "value": 30, "unit": "%"}]}]}
